Assays:
[1] = system: NLRP3 inflammasome; assay: Western blotting of NLRP3 inflammasome molecules in LPS/ATP-treated THP1 cells; format: cell-based, human
[2] = target: T1, TLR3 (Mus musculus, UniProt Q99MB1); assay: TNF-α and IFN-β secretion in RAW 264.7 cells with Poly(I:C); format: cell-based
T1 construct: host or cells: RAW 264.7
T1 sequence (Q99MB1 26-905): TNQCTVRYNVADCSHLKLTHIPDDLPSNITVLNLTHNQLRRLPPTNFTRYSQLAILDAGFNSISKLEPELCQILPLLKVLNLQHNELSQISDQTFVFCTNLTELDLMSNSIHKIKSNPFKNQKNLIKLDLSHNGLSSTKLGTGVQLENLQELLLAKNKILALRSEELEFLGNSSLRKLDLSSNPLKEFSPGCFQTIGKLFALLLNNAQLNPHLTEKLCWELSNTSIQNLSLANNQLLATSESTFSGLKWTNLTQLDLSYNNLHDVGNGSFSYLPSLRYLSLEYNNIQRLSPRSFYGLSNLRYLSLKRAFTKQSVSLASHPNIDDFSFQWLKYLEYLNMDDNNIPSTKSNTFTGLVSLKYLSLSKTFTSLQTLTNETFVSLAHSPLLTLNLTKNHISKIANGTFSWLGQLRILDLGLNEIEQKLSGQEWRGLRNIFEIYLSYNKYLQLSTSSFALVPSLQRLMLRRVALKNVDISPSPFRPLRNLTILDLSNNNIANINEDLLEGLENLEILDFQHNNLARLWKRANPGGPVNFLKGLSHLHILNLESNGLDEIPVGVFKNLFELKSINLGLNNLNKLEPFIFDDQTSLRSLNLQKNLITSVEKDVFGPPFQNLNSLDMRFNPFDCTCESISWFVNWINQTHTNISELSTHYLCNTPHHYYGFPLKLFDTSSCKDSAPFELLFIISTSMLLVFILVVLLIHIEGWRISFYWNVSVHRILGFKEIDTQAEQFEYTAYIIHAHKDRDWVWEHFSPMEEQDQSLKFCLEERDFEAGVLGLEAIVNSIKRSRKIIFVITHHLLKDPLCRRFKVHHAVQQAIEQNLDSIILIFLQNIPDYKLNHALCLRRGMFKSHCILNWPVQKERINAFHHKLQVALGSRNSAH

[3] = system: TLR7/8; assay: TNF-α secretion in RAW 264.7 cells with R848; format: cell-based, mouse
[4] = system: mBMDM cells (Poly(I:C)-induced); assay: Poly(I:C)-induced IFN-β generation in mBMDM cells; format: cell-based, mouse
[5] = system: renal tissue of LPS-treated mice; assay: Renal apoptosis by TUNEL staining in LPS-treated mice; format: in vivo, mouse; settings: TIP1 and LPS, 24 hours
Protocol: Subsequently, renal tissues were isolated and weighed using an electronic balance (ER-180A, A&D Company, Tokyo, Japan); and then, cut into sagittal planes to make slices. The slices were left overnight in a 10% formalin solution, and then solidified by pouring of paraffin wax. The resultant was made into thin sections of 4 μm using a microtome and fixed. […] The images were analyzed using Zen 2009 software (Carl Zeiss MicroImaging GmbH.). The results are illustrated in FIG. 17.

[6] = system: C57BL/6J mice, mouse sepsis model; assay: Renal and hepatic damage markers and cytokines in plasma, mouse sepsis model (24 hours); format: in vivo; settings: TIP1 and LPS
Protocol: Using the isolated plasma, secretion levels of TNF-α and IL-6 were measured by the method in Experimental Example 9, and changes in secretion levels of the renal damage markers, blood urea nitrogen (BUN) and creatinine (Cr), and the hepatic damage markers, aspartate aminotransferase (AST) and alanine aminotransferase (ALT) were analyzed through VETTEST-8008-system (IDEXX). The results are illustrated in FIGS. 16(a)-16(f).

[7] = system: RAW 264.7 cells; assay: Intracytoplasmic NO and ROS (DAF-FM, DCF-DA) in RAW 264.7 cells; format: cell-based, mouse; settings: TIP1 and LPS
Protocol: RAW 264.7 cells were dispensed into 6-cm dishes (SPL Life Sciences, Pocheon, Korea) to a cell number of 1×10^6 cells/well and incubation was performed overnight. Subsequently, treatment with TIP1 was performed and respective staining with DAF-FM and DCF-DA (Thermo Fisher Scientific, Inc.) was performed. Then, incubation was performed for 1 hour. Thereafter, the cells were collected by centrifugation at 200×g for 5 minutes, transferred to brown tubes, and stored in PBS at a temperature of 4° C. The intensities of DAF-FM, DCF-DA fluorescent materials were measured using FACSAria III with Diva software (BD Biosciences), and quantified.
In addition, according to the method described in Example 2-7, a NO level in the culture supernatant of RAW 264.7 cells was measured using a NO detection kit. The results are illustrated in FIGS. 5(a)-5(c).

[8] = system: RAW 264.7 cells (LPS-induced TLR4 signaling); assay: Cytokine secretion (ELISA) in LPS-treated RAW 264.7 cells; format: cell-based, mouse; settings: TIP1 and LPS
Protocol: RAW 264.7 cells, THP1 cells, and mBMDM cells were dispensed into 96-well plates to a cell number of 2×10^5 cells/well, or into 24-well plates to a cell number of 5×10^5 cells/well. Incubation was performed overnight. Subsequently, combined treatment with TIP1 and LPS was performed. After 24 hours, secretion levels of IFN-β, IL-6, and TNF-α were measured using a […] (BioLegend), Mouse IL-6 Platinum ELISA (eBiosciences), and a Mouse TNF alpha ELISA Ready SET-Go! kit (eBiosciences). Absorbance was measured at 450 nm using a microplate reader spectrophotometer (Molecular Devices), and the results were analyzed using Softmax Pro 5.3 software (Molecular Devices Inc.).
TNF-α, IL-6, IFN-β levels in the culture supernatant of RAW 264.7 cells were measured using mouse TNF-α, IL-6, IFN-β Ready-SET-Go! ELISA kits according to the method described in Example 2-5. The results are illustrated in FIGS. 4(a)-4(c).

RQIKIWFQNRRMKWKKSHCRVLLI (TIP1)
intracellular expression level of NLRP3 [1]: remarkably decreased
intracellular expression level of active caspase-1 (10 kDa) [1]: remarkably decreased
intracellular expression level of mature IL-1β (17 kDa) [1]: remarkably decreased
secretion level of TNF-α ([2]; Poly(I:C) (TLR3)): decreased
decrease of TNF-α secretion (inhibitory effect on TLR3 signaling) ([2]; Poly(I:C), at 50 μM): 92%
secretion level of IFN-β ([2]; TIP1 together with Poly(I:C), ELISA): decreased
secretion level of TNF-α [3]: decreased
Poly(I:C)-induced generation of IFN-β [4]: inhibited
apoptosis in renal tissue (TUNEL-positive cells) [5]: decreased
alanine aminotransferase (ALT), hepatic damage marker [6]: remarkably decreased
aspartate aminotransferase (AST), hepatic damage marker [6]: remarkably decreased
blood urea nitrogen (BUN), renal damage marker [6]: remarkably decreased
creatinine (Cr), renal damage marker [6]: remarkably decreased
secretion level of IL-6 in plasma [6]: remarkably decreased
secretion level of TNF-α in plasma [6]: remarkably decreased
generation level of NO in the cytoplasm ([7]; DAF-FM): effectively decreased
generation level of ROS in the cytoplasm ([7]; DCF-DA): effectively decreased
secretion of IFN-β [8]: decreased in a concentration-dependent manner
secretion of IL-6 [8]: decreased in a concentration-dependent manner
secretion of TNF-α [8]: decreased in a concentration-dependent manner

— US11352399B2, “Peptide for toll-like receptor (TLR) inhibition and pharmaceutical composition comprising same” (GENESEN CO., LTD., priority 2017, dated 2022)
